Each structure is given as a SMILES string.

The test has as its target GST-Bc1-2 (Homo sapiens, UniProt P10415). Briefly: Time Resolved-Fluorescence Resonance Energy Transfer (TR-FRET) Bcl-2 binding assay with F-Bak peptide probe. The note with it: GST-Bcl-2 1 nM, F-Bak probe 100 nM, Tb-anti-GST 1 nM; '<' = below limit of detection; read-out: TR-FRET Bcl-2 Binding Ki. (TR-FRET usually uses a lanthanide donor and a delayed reading to cut background.)

Chain of GST-Bc1-2 (P10415 whole entry): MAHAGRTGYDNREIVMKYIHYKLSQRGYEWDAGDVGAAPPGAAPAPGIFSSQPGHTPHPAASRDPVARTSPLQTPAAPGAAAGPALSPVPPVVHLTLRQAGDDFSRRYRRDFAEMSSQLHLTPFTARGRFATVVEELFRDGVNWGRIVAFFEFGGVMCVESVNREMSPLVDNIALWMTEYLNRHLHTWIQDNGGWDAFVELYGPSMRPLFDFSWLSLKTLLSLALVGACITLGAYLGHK

In general, Ki refers to a measure of affinity in units of concentration, obtained from inhibition or displacement. As to `COCCOCCS(=O)(=O)c1ccc(S(=O)(=O)NC(=O)c2ccc(N3CCN(CC4=C(c5ccc(Cl)cc5)CC(C)(C)CC4)CC3)cc2Oc2cnc3[nH]ccc3c2)cc1[N+](=O)[O-]` [Example 59, 4-(4-{[2-(4-chlorophenyl)-4,4-dimethylcyclohex-1-en-1-yl]methyl}piperazin-1-yl)-N-[(4-{[2-(2-methoxyethoxy)ethyl]sulfonyl}-3-nitrophenyl)sulfonyl]-2-(1H-pyrrolo[2,3-b]pyridin-5-yloxy)benzamide], the Ki amounted to 0.203 nM. Under `CC1(C)CCC(CN2CCN(c3ccc(C(=O)NS(=O)(=O)c4ccc(O[C@H]5CC[C@H](N6CCOCC6)CC5)c([N+](=O)[O-])c4)c(Oc4cnc5[nH]ccc5c4)c3)CC2)=C(c2ccc(Cl)cc2)C1` [Example 60, Trans-4-(4-{[2-(4-chlorophenyl)-4,4-dimethylcyclohex-1-en-1-yl]methyl}piperazin-1-yl)-N-({4-[(4-morpholin-4-ylcyclohexyl)oxy]-3-nitrophenyl}sulfonyl)-2-(1H-pyrrolo[2,3-b]pyridin-5-yloxy)benzamide] stands under 0.01 nM; under `CC1(C)CCC(CN2CCN(c3ccc(C(=O)NS(=O)(=O)c4ccc(NCCC#N)c([N+](=O)[O-])c4)c(Oc4cnc5[nH]ccc5c4)c3)CC2)=C(c2ccc(Cl)cc2)C1` [Example 62, 4-(4-{[2-(4-chlorophenyl)-4,4-dimethylcyclohex-1-en-1-yl]methyl}piperazin-1-yl)-N-({4-[(2-cyanoethyl)amino]-3-nitrophenyl}sulfonyl)-2-(1H-pyrrolo[2,3-b]pyridin-5-yloxy)benzamide], under 0.01 nM; under `CC1(C)CC(c2ccc(Cl)cc2)=C(CN2CCN(c3ccc(C(=O)NS(=O)(=O)c4ccc(N[C@H]5CC[C@@H](N6CCOCC6)CC5)c([N+](=O)[O-])c4)c(Oc4cnc5[nH]ccc5c4)c3)CC2)CO1` [Example 63, Cis-4-(4-{[4-(4-chlorophenyl)-6,6-dimethyl-5,6-dihydro-2H-pyran-3-yl]methyl}piperazin-1-yl)-N-({4-[(4-morpholin-4-ylcyclohexyl)amino]-3-nitrophenyl}sulfonyl)-2-(1H-pyrrolo[2,3-b]pyridin-5-yloxy)benzamide], under 0.01 nM. As for `CC1(C)CCC(CN2CCN(c3ccc(C(=O)NS(=O)(=O)c4ccc(N[C@H]5CC[C@H](N(CC6CC6)CC6CC6)CC5)c([N+](=O)[O-])c4)c(Oc4cnc5[nH]ccc5c4)c3)CC2)=C(c2ccc(Cl)cc2)C1` [Example 64, Trans-N-{[4-({4-[bis(cyclopropylmethyl)amino]cyclohexyl}amino)-3-nitrophenyl]sulfonyl}-4-(4-{[2-(4-chlorophenyl)-4,4-dimethylcyclohex-1-en-1-yl]methyl}piperazin-1-yl)-2-(1H-pyrrolo[2,3-b]pyridin-5-yloxy)benzamide], the Ki is under 0.01 nM.

Turning to `CN1CCC(CNc2ccc(S(=O)(=O)NC(=O)c3ccc(N4CCN(CC5=C(c6ccc(Cl)cc6)CC(C)(C)CC5)CC4)cc3Oc3cnc4[nH]ccc4c3)cc2[N+](=O)[O-])CC1` [Example 65, 4-(4-{[2-(4-chlorophenyl)-4,4-dimethylcyclohex-1-en-1-yl]methyl}piperazin-1-yl)-N-[(4-{[(1-methylpiperidin-4-yl)methyl]amino}-3-nitrophenyl)sulfonyl]-2-(1H-pyrrolo[2,3-b]pyridin-5-yloxy)benzamide], the Ki was under 0.01 nM.

Consider `CC1(C)CCC(CN2CCN(c3ccc(C(=O)NS(=O)(=O)c4ccc(NCC5COCCN5)c([N+](=O)[O-])c4)c(Oc4cnc5[nH]ccc5c4)c3)CC2)=C(c2ccc(Cl)cc2)C1` (stereo not shown) [Example 66, 4-(4-{[2-(4-chlorophenyl)-4,4-dimethylcyclohex-1-en-1-yl]methyl}piperazin-1-yl)-N-({4-[(morpholin-3-ylmethyl)amino]-3-nitrophenyl}sulfonyl)-2-(1H-pyrrolo[2,3-b]pyridin-5-yloxy)benzamide], for which the Ki is under 0.01 nM. As to `CN1CCN(Nc2ccc(S(=O)(=O)NC(=O)c3ccc(N4CCN(CC5=C(c6ccc(Cl)cc6)CC(C)(C)OC5)CC4)cc3Oc3cnc4[nH]ccc4c3)cc2[N+](=O)[O-])CC1` [Example 67, 4-(4-{[4-(4-chlorophenyl)-6,6-dimethyl-5,6-dihydro-2H-pyran-3-yl]methyl}piperazin-1-yl)-N-({4-[(4-methylpiperazin-1-yl)amino]-3-nitrophenyl}sulfonyl)-2-(1H-pyrrolo[2,3-b]pyridin-5-yloxy)benzamide], the inhibition constant (Ki) was under 0.01 nM. Take `CC1(C)CCC(CN2CCN(c3ccc(C(=O)NS(=O)(=O)c4ccc(OCC#CCN5CCOCC5)c([N+](=O)[O-])c4)c(Oc4cnc5[nH]ccc5c4)c3)CC2)=C(c2ccc(Cl)cc2)C1` [Example 68, 4-(4-{[2-(4-chlorophenyl)-4,4-dimethylcyclohex-1-en-1-yl]methyl}piperazin-1-yl)-N-({4-[(4-morpholin-4-ylbut-2-ynyl)oxy]-3-nitrophenyl}sulfonyl)-2-(1H-pyrrolo[2,3-b]pyridin-5-yloxy)benzamide]: the inhibition constant (Ki) is 0.012 nM.

Consider `C#Cc1cc(S(=O)(=O)NC(=O)c2ccc(N3CCN(CC4=C(c5ccc(Cl)cc5)CC(C)(C)CC4)CC3)cc2Oc2cnc3[nH]ccc3c2)cnc1OCC1CCOCC1` [Example 69, 4-(4-{[2-(4-chlorophenyl)-4,4-dimethylcyclohex-1-en-1-yl]methyl}piperazin-1-yl)-N-{[5-ethynyl-6-(tetrahydro-2H-pyran-4-ylmethoxy)pyridin-3-yl]sulfonyl}-2-(1H-pyrrolo[2,3-b]pyridin-5-yloxy)benzamide], for which the Ki is 1.16 nM. Under `CC1(C)CCC(CN2CCN(c3ccc(C(=O)NS(=O)(=O)c4ccc5nc[nH]c(=O)c5c4)c(Oc4cnc5[nH]ccc5c4)c3)CC2)=C(c2ccc(Cl)cc2)C1` [Example 70, 4-(4-{[2-(4-chlorophenyl)-4,4-dimethylcyclohex-1-en-1-yl]methyl}piperazin-1-yl)-N-[(4-oxo-3,4-dihydroquinazolin-6-yl)sulfonyl]-2-(1H-pyrrolo[2,3-b]pyridin-5-yloxy)benzamide] stands 3.96 nM. Then `O=C(NS(=O)(=O)c1ccc(N[C@H]2CC[C@H](N3CCOCC3)CC2)c([N+](=O)[O-])c1)c1ccc(N2CCN(CC3=C(c4ccc(Cl)cc4)CCC4(CCCC4)C3)CC2)cc1Oc1cnc2[nH]ccc2c1` [Example 71, Trans-4-(4-{[8-(4-chlorophenyl)spiro[4.5]dec-7-en-7-yl]methyl}piperazin-1-yl)-N-({4-[(4-morpholin-4-ylcyclohexyl)amino]-3-nitrophenyl}sulfonyl)-2-(1H-pyrrolo[2,3-b]pyridin-5-yloxy)benzamide], with 0.01 nM. As for `CO[C@H]1CC[C@@H](CNc2ccc(S(=O)(=O)NC(=O)c3ccc(N4CCN(CC5=C(c6ccc(Cl)cc6)CC(C)(C)OC5)CC4)cc3Oc3cnc4[nH]ccc4c3)cc2[N+](=O)[O-])CC1` [Example 72, Cis-4-(4-{[4-(4-chlorophenyl)-6,6-dimethyl-5,6-dihydro-2H-pyran-3-yl]methyl}piperazin-1-yl)-N-[(4-{[(4-methoxycyclohexyl)methyl]amino}-3-nitrophenyl)sulfonyl]-2-(1H-pyrrolo[2,3-b]pyridin-5-yloxy)benzamide], the Ki is under 0.01 nM.
